Here are results for 19 molecules from patent US20060159639A1, “Pseudo body odor composition and perfume composition for inhibiting body odor” (priority 2003, published 2006).

This assay can be described thus: Suppression test of Experimental Example 1: masking and harmonizing effect in a cup, four expert panelists.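 As to harmonizing: score 1 means in harmony 0 indefinite and −1 not in harmony.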 The following applies: for Masking: scale 0-3. The method, then: In the present invention, the selection of the above component (I), component (II) and component (III) was carried out as follows. That is, one of the pseudo body odor compositions mentioned above and a target fragrance component were mixed and left at room temperature for 30 minutes. Thereafter, evaluations of the masking and harmonizing effects to the acid odor were carried out by four expert panelists.
After 30 minutes, a hole of about 1 cm in diameter was formed in the aluminum foil and the investigations of masking effect and the harmonizing effect were carried out according to following evaluation criteria by four expert panelists.
3: Excellent in the masking.
2: Substantially excellent in the masking.
1: Slightly sensible of the body odor (sweat odor and armpit odor).
0: Sensible of the body odor (sweat odor and armpit odor) (insufficient in the masking)

[1] abbreviates: 200 μl pseudo body odor composition of Example 4 and 10 μl perfume on filter papers in sealed about 500 ml cup, after 30 minutes, four expert panelists.
[2] abbreviates: 200 μl pseudo body odor composition of Example 4 and 10 μl perfume on filter papers in sealed about 500 ml cup, after 30 minutes, four expert panelists, scale −1 to 1.

Read-outs that look alike come from different tables or passages of the source.

Consider `COc1ccc(C)cc1` [p-Cresyl methyl ether], for which the Masking under setting [1] worked out at 3. The same molecule gave a Harmonizing under setting [2] of 1.

The molecule `CC(C)(C)C1CCC(O)CC1` (centres unmarked) [p-tert-Butylcyclohexanol] had a Masking under setting [1] of 1.5 points. The Harmonizing under setting [2] was 0.

Under setting [1], `CC(=O)OC1CCC(C(C)(C)C)CC1` (centres unmarked) [p-tert-Butylcyclohexyl acetate] yielded a Masking of 1.5 points. This molecule also had a Harmonizing under setting [2] of −1.

Under setting [1], `CC(C)(O)Cc1ccccc1` [α,α-Dimethylphenylethyl, α,α-dimethyl phenylethyl alcohol] yielded a Masking of 0.5 points. The molecule further had a Harmonizing under setting [2] of −1.

On to `C/C=C\C(=O)C1C(C)=CCCC1(C)C` (stereo not drawn) [α-Damascone], for which the Masking under setting [1] amounted to 2. In addition, under setting [2], the Harmonizing came out at 0.

Take `C=CCCC(=O)C1=CCCC(C)(C)C1` [α-Dynascone, 1-(5,5-dimethyl-cyclohexene-1-yl)-4-pentene-1-one]: the Masking under setting [1] is 3. This molecule also gave a Harmonizing under setting [2] of 1.

On to `CCCCCCC(C=O)=Cc1ccccc1` [α-Hexyl cinnamic aldehyde], for which, under setting [2], the Harmonizing is reported as −1.

As to `C/C=C/C(=O)C1=C(C)CCCC1(C)C` [β-Damascone], the Masking under setting [1] is reported as 2. The same molecule showed a Harmonizing under setting [2] of 1.

Under setting [1], `CC(=O)/C=C/C1=C(C)CCCC1(C)C` [β-Ionone] displayed a Masking of 1.5 points. Also, the Harmonizing under setting [2] is recorded as −1.

`COc1ccc2ccccc2c1` [β-Naphthol methyl ether] had a Harmonizing of 1.

The molecule `CCCCCCC1CCC(=O)O1` (centres unmarked) [γ-Decalactone] displayed a Masking under setting [1] of 2.5 points. Under setting [2], this molecule displayed a Harmonizing of 1.

Regarding `CC(=O)/C(C)=C/C1C(C)=CCCC1(C)C` (centres unmarked) [γ-Methylionone], the Masking under setting [1] is 2. This molecule gave a Harmonizing under setting [2] of 1.

For the molecule `CCCCCC1CCC(=O)O1` (centres unmarked) [γ-Nonalactone], under setting [1], the Masking turned out to be 2.5 points. This molecule also gave a Harmonizing under setting [2] of 1.

For the molecule `CCCCCCCC1CCC(=O)O1` (centres unmarked) [γ-Undecalactone], the Harmonizing came to 1.

In the case of `C/C=C/C(=O)C1C(C)C=CCC1(C)C` (centres unmarked) [δ-Damascone], the Masking under setting [1] worked out at 1.5 points. The same molecule yielded a Harmonizing under setting [2] of 0.

Methyl naphthyl ketone displayed a Masking under setting [1] of 1.5 points. Moreover, the Harmonizing under setting [2] is −1.

The molecule Methylionone registered a Masking under setting [1] of 2. For the same molecule, under setting [2], the Harmonizing amounted to 1.

Methylionone soap had a Masking under setting [1] of 2. The same molecule displayed a Harmonizing under setting [2] of 1.

The molecule isocamphyl cyclohexanol [Santalex] had a Masking under setting [1] of 0.5 points. The molecule further displayed a Harmonizing under setting [2] of −1.
